The source of these data is US8524744B2, “Arylamine ketones, their preparation methods, the pharmaceutical composition containing them and their use” (Institute of Mataria Medica, Chinese Academy of Medical …, priority 2004, dated 2013).

In general, melting point refers to the temperature, or range, at which the solid turns liquid. The IC50 is the concentration at which inhibition is half-maximal. The term Ki denotes a dissociation constant, usually derived from enzyme kinetics or from competition with a known ligand.

Structures can show the parent of a compound that is named as a salt.

Data set [1] concerns patients with rheumatoid arthritis. Conditions: after administration for 4 weeks; cited from earlier work.
In data set [2] the test system is mouse with arthritis induced by type III collagen. Conditions: cited from earlier work.
The next data set relates to NF-κB, TNF-α mRNA. The settings on record: infected mice; cited from earlier work.
The next data set relates to rat paw swelling. The settings on record: induced by PAF, carrageenan, histamine, 5-serotonin; cited from earlier work.
The test system of data set [3] is polymorphonuclear leucocytes from rat pleural cavity. Briefly: release of β-glucuronidase by polymorphonuclear leucocytes from rat pleural cavity in vitro (PAF as irritant). Format: cell-based. The settings on record: for IC50: rat polymorphonuclear leucocytes. The protocol:
1% carrageenan was injected into the right pleural cavity of Wistar rat to induce polymorphonuclear leucocytes. The cells was suspended in Dulbecoo's buffer at the concentration of 2.5×10^6 cells·ml^1. The fluid containing the compound or solvent and 250 μl of cells suspension were added in test tube and incubated in 37° C. waterbath for 15 min. Then 2.5 μl of cytochalasin B (1×10^−3 mol·L^−1) was added and the reaction was continued for 5 min. Then 2.5 μl of PAF (1×10^−4 mol·L^−1) was added and for another 5 min. The test tubes were put into ice bath to stop the reaction. The supernatant was isolated and used as the β-glucuronidase release fluid. 25 μl of the enzyme fluid, 25 μl of phenolphthalein-glucuronic acid (2.5 mmol·L^−1) and 100 μl of acetic acid buffer (0.1 mol·L^−1) were added into each well of 96-well plate which was placed into incubater and kept at 37° C.3 for 18 hr. 150 μl of NaOH (0.3 mol·L^−1) was added in each well to cease the reaction and the optical density was read at 550 nm.

Data set [4] concerns mouse ear edema induced by croton oil. Kind of data set: mouse ear edema induced by croton oil. Conditions: orally, 50 mg·kg^−1, Kunming mice. Format: in vivo. How it is done: Kuming mice (male, 18-22 g) were randomly divided into two groups (treatment and control) with 10 animals for each group. The animals were orally administrated with compounds or solvent, respectively. 1 hr later, 50 μl of 2% croton oil was smeared on the two sides of mouse left ear. After 4 hr the mice were sacrificed by cervical vertebra displacement. The two ears were cut off and the central sections were excised using a punch with a diameter of 8 mm and weighed. Edema was quantified as the weight difference between the two sections.

In data set [5] the test system is cutaneous vascular permeability in mice induced by PAF. Briefly: increase of cutaneous vascular permeability in mice induced by PAF. Format: in vivo, mouse. The settings on record: orally, 50 mg·kg^−1, Kunming mice. How it is done:
Kunming mice (male, 18-22 g) were randomly divided into two groups (treatment and control) with 10 animals for each group. The animals were orally administrated with the compounds or solvent, respectively. 1 hr later, 0.25 ml of 1% evans blue dye was injected into the tail vein. After 10 min, 0.1 ml of PAF (1×10^−8 mol·L^−1) was intracutaneously injected into the dorsal skin shaved. 1 hr later, the animals were sacrificed by cervical vertebra displacement. The skin with blue spot was cut off. The evans blue dye was extracted by 0.8 ml of mixed solution of acetone and normal saline (7:3). The supernatant was transferred into the 96-well plate. The optical density was measured at 620 nm.

Another data set concerns rat neutrophils. Kind of data set: chemotaxis of rat neutrophils in vitro. The data set is classed as cell-based. The settings on record: Neutrophil, 4 hr, read-out: IC50, inhibition of chemotaxis. The protocol: The blood was collected from rat common carotid artery and anticoagulated. The neutrophils was isolated by 5% glucose solution and lymphocyte separating medium. 27 μl of irritant was added into the well at low part of the chemotaxis plate. The filter membrane was covered on the wells and the top part of the plate was assembled on the filter. 50 μl of cells suspension with various concentrations of compound or solvent was added into the well at top part of the plate. The plate was incubated at 37° C. for 4 hr. The filter was taken out, stained by hematoxylin and dehydrated. The cells migrated into the other side of the filter was counted by microscope.

Data set [6] concerns mouse paw swelling induced by carrageenan. Briefly: mouse paw swelling induced by carrageenan. The data set is classed as in vivo. Conditions: orally, 50 mg·kg^−1, Kunming mice. The protocol:
Kunming mice (male, 18-22 g) were randomly divided into two groups (treatment and control) with 10 animals for each group. The animals were orally administrated with compounds or solvent, respectively. 1 hr later, 50 μl of 1% carrageenan was intracutaneously injected into the sole of right posterior foot. After 4 hr the animals were sacrificed by displacing cervical vertebra. The two paws were cut off at ankle joint and weighed. The swelling was evaluated by the difference of the weights of two paws.

Data set [7] concerns the target T1, PAF receptors of macrophages from mouse peritoneal cavity (Mus musculus, UniProt Q62035).
T1 construct: The cells in peritoneal cavity were collected after injection for 3-4 days; endogenous in cells; host or cells: adherent peritoneal macrophages of C57BL/6 mice (primary)
Briefly: competitive binding of [3H]-PAF to its receptors of macrophages from mouse peritoneal cavity. Conditions: 4° C, 150 min, read-out: Ki, competition with [3H]-PAF binding. The protocol:
4% of sodium mercaptoethanol was injected into C57BL/6 mouse peritoneal cavity to induce macrophages. The cells in peritoneal cavity were collected after injection for 3-4 days. 500 μl of suspension (5×10^5cells·ml^−1) was inoculated into 24-well culture plate which was placed into the incubator with 5% CO2 at 37° C for 2.5 hr. The non-adherent cells and serum in media were discarded. 490 μl of Tyrode-Hepes solution and 5 μl of [^3H]-PAF (final concentration: 2.8 nmol·L^−1) were added into each well. 5 μl of unlabeled PAF (5 μmol·L^1) was added into the well for the nonspecific binding. The series concentrations of compound were added into the well for the competitive binding and the corresponding volume of solvent was added into the wells for the total binding or the nonspecific binding. The reaction fluid was incubated at 4° C for 150 min and rinsed to wipe off the free labeled ligand. 300 μl of NaOH (0.3 mol·L^−1) was added to lyse the cells. The lysate fluid was transferred into a vial in which 7 ml of scintillation solution was added. The radioactivity strength was measured by scintillation counter.

Data set [8] concerns macrophages from mouse peritoneal cavity. Briefly: chemotaxis of macrophages from mouse peritoneal cavity induced by PAF. Conditions: Macrophage, 2 hr, read-out: IC50, inhibition of chemotaxis. Format: cell-based. The protocol:
4% of sodium mercaptoethanol was injected into C57BL/6 mouse peritoneal cavity to induce macrophages. The cells in peritoneal cavity were collected after injection for 3-4 days. 27 μl of irritant was added into the well at low part of the chemotaxis plate. The filter membrane was covered on the wells and the top part of the plate was assembled on the filter. 55 μl of cells suspension with various concentrations of the compounds or solvent was added into the well at top part of the plate. The plate was placed into incubater with 5% CO2 at 37° C. for 2 hr. The filter was taken out, stained by hematoxylin and dehydrated. The cells migrated into the other side of the filter was counted by microscope.

Data set [9] deals with production of NO in macrophages from mouse peritoneal cavity. Kind of data set: production of NO in macrophages from mouse peritoneal cavity (LPS and PAF). Conditions: Macrophage, 24 h, read-out: IC50, inhibition of the production of NO. The data set is classed as cell-based. How it is done: 4% of sodium mercaptoethanol was injected into C57BL/6 mouse peritoneal cavity to induce macrophages. The cells in peritoneal cavity were collected after injection for 3-4 days. 500 μl of cells were inoculated in the well of 24 wells plate which was placed in the CO2 incubator at 37° C. for 2.5 hr to make the cells adherent. The cells were rinsed by 1640 culture media. 495 μl of 1640 media containing irritant and 5 μl the compound or solvent were added into each well. The plate was incubated for 24 hr. The supernatant was taken out and mixed with the same volume of Griess agent. The reaction fluid was kept at room temperature for 10 min and the optical density was measured at 550 nm. The numbers read was transferred into the content of NO.

Data set [10] relates to production of TNF-α by macrophages from mouse peritoneal cavity. Kind of data set: production of TNF-α by macrophages from mouse peritoneal cavity (LPS, L929 bioassay). The data set is classed as cell-based. The settings on record: Macrophage, 24 h, read-out: IC50, inhibition of the production of TNF-α. The protocol: The macrophages from mouse peritoneal cavity were prepared as described before. 500 μl of cells were inoculated in 48-well plate which was incubated with 5% CO2 at 37° C. for 2.5 hr. The compounds and LPS (final concentration: 10 μg·ml^−1) were added into each well of the plate. After incubating for 24 hr the supernatant was collected. The content of TNF-α was determined by following method. 100 μl of L929 cells (2×10^5cells·ml^−1) with 100 μl of RPMI-1640 or supernatant collected above were inoculated into 96-well plate which incubated under 5% CO2 at 37° C. for 20 hr. The supernatant was discarded. 200 μl of 0.5% crystal violet was added into each well. 10 min later crystal violet outside of the cells was rinsed using normal saline. The cells were dried under room temperature. 100 μl of 10% SDS was added into each well. After the cells were lysed completely the optical density was measured at 570 nm. The well of 1640 media was as the control, The content of TNF-a was evaluated by the percentage of L929 cells survival.

[11] abbreviates: Dose 1 × 10^−5 mol · L^−1, Irritant 2 × 10^−7 mol · L^−1.

T1 sequence (Q62035 whole entry): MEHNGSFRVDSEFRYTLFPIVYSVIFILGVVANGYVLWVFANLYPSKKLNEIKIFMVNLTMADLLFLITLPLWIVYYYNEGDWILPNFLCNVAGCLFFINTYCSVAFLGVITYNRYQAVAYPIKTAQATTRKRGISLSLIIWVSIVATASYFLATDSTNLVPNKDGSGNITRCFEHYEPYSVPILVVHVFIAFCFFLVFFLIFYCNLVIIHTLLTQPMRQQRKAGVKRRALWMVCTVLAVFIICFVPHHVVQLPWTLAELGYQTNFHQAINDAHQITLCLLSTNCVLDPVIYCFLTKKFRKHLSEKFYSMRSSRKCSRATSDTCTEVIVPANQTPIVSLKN

The compound `CCOC(=O)C1CCN(CCC(=O)/C=C/c2ccc(Cl)cc2)CC1` (as salt: hydrochloride) [Compound 3, 5-[(4-Ethoxycarbonyl)piperidyl]-1-(4-chlorophenyl)-1-penten-3-one hydrochloride] returned a melting point of 172 to 174 °C.

In turn, `O=C(C=Cc1ccc(C(F)(F)F)cc1)CCN1CCC(Cc2ccccc2)CC1` (as salt: hydrochloride) [Compound 20, 5-[(4-Benzyl)piperidyl]-1-(4-trifluoromethylphenyl)-1-penten-3-one hydrochloride] gave a melting point of 175 to 179 °C.

The compound `COc1ccc(C=CC(=O)CCN2CCC(Cc3ccccc3)CC2)cc1` (as salt: hydrochloride) [Compound 22a, 5-[(4-Benzyl)piperidyl]-1-(4-methoxyphenyl)-1-penten-3-one hydrochloride] displayed a melting point of 180 to 184 °C.

For `COc1ccc(C=CC(=O)CCN2CC(C)OC(C)C2)cc1O` (stereo not drawn) (as salt: hydrochloride) [Compound 36, 5-(2,6-Dimethylmorpholinyl)-1-(3-hydroxy-4-methoxyphenyl)-1-penten-3-one hydrochloride], the melting point was in the range of 194 to 196 °C.

`CCOc1cc(C=CC(=O)CCN2CC(C)OC(C)C2)ccc1O` (stereo not drawn) (as salt: hydrochloride) [Compound 37, 5-(2,6-Dimethylmorpholinyl)-1-(3-ethoxy-4-hydroxyphenyl)-1-penten-3-one hydrochloride] showed a melting point of 198 to 201 °C.

Consider `COc1ccc(NC(=S)N2CCc3c(sc4c3C(c3ccccc3Cl)=NCc3nnc(C)n3-4)C2)cc1` [BN50730], for which the “symptom of patients with rheumatoid arthritis” value in data set [1] is listed as “significantly improves”. For the same compound, in data set [2], the “consumption of proteoglycan in cartilage” value was “decrease”, the joint swelling result is on record as “significantly inhibit” and the “precipitation of fibronectin in cartilage” value was “decrease”. In the data set with NF-κB, TNF-α mRNA, the “early activity of NF-κB” value is given as “reduce” and the “expression of TNF-α mRNA” value is reported as “reduce”.

On to `CCCCCCCCCCCCCCCCCCNC(=O)OCC(COC(=O)N(Cc1cccc[n+]1CC)C(C)=O)OC` (stereo not drawn) [CV-6209], for which the rat paw swelling entry in the data set with rat paw swelling was “inhibit”.

As to `CCOC(=O)C1CCCN(CCC(=O)C=Cc2ccc(Cl)cc2Cl)C1.Cl` (stereo not drawn) [Compound 16, 5-[(3-Ethoxycarbonyl)piperidyl]-1-(2,4-dichlorophenyl)-1-penten-3-one hydrochloride], the “Inhibition (%) of β-glucuronidase release” value in data set [3] (Dose 2 × 10^−6 mol · L^−1, Irritant 1 × 10^−7 mol · L^−1) was found to be 84.38%. The compound also returned an IC50 in data set [3] of 22.4 nM. For the same compound, the “Inhibition (%) of mouse ear edema” value in data set [4] is 29.05%. Moreover, in [5], the “Inhibition (%) of increase of cutaneous vascular permeability” value stood at 48.09%.

In the case of `COc1ccc(C=CC(=O)CCN2CCC(Cc3ccccc3)CC2)cc1` [Compound 22a, 5-[(4-Benzyl)piperidyl]-1-(4-methoxyphenyl)-1-penten-3-one hydrochloride], the “Inhibition (%) of β-glucuronidase release” value in data set [3] (Dose 1 × 10^−5 mol · L^−1, Irritant 1 × 10^−6 mol · L^−1) was determined as 73.17%. The half-inhibitory concentration (IC50) in data set [3] (Leucocyte) was 562 nM; in the data set with rat neutrophils, 4.05 nM. For the same compound, in [4], the “Inhibition (%) of mouse ear edema” value came out at 31.22%. Also, in [6], the “Inhibition (%) of mouse paw swelling” value is given as 23.33%. For the same compound, the “Inhibition (%) of increase of cutaneous vascular permeability” value in data set [5] is 51.14%.

On to `COc1ccc(C=CC(=O)CCN2CC(C)OC(C)C2)cc1O` (stereo not drawn) [Compound 36, 5-(2,6-Dimethylmorpholinyl)-1-(3-hydroxy-4-methoxyphenyl)-1-penten-3-one hydrochloride], for which the “Inhibition (%) of β-glucuronidase release” value in data set [3] (setting [11]) amounted to 129.72%. Further, the IC50 was found to be 0.555 nM in [3] (Leucocyte), 44.8 nM in [8], 3230 nM in data set [9] and 45.8 nM in data set [10]. In addition, the Ki in data set [7] amounted to 48100 nM. The “Inhibition (%) of mouse paw swelling” value in data set [6] stood at 28.00%. In addition, the “Inhibition (%) of increase of cutaneous vascular permeability” value in [5] was 33.50%.

In the case of `CCOc1cc(C=CC(=O)CCN2CC(C)OC(C)C2)ccc1O` (stereo not drawn) [Compound 37, 5-(2,6-Dimethylmorpholinyl)-1-(3-ethoxy-4-hydroxyphenyl)-1-penten-3-one hydrochloride], the “Inhibition (%) of β-glucuronidase release” value in data set [3] (setting [11]) was 79.24%. Also, the IC50 was 1.23 nM in data set [3] (Leucocyte), 83.2 nM in [8], 3690 nM in [9] and 2 nM in [10]. Further, the Ki in data set [7] is 68300 nM. In addition, in [4], the “Inhibition (%) of mouse ear edema” value came to 33.20%. Besides, the “Inhibition (%) of mouse paw swelling” value in [6] amounted to 21.60%. The “Inhibition (%) of increase of cutaneous vascular permeability” value in [5] is reported as 38.70%.
